Measured values as given in patent publication US9220791B2, “Bispecific intracellular delivery vehicles” (University of Washington, priority 2008, dated 2015).

Key:
Format in all cases: cell-based, human
[1] = tested on: HeLa cells; assay: Fluorescent microscopic analysis of conjugate endosomal escape; details: Alexa-488 labeled peptide, 25 μM Antp-BH3, 15 minutes treatment
Description: (§1) HeLas, human cervical carcinoma cells (ATCC CCL-2), were maintained in minimum essential media (MEM) containing L-glutamine, 1% penicillin-streptomycin, and 10% FBS. Prior to experiments, HeLas were allowed to adhere overnight in 8-well chamber slides (20,000 cells/well) for microscopy or 96-well plates (10,000 cells/well) for other assays. Polymer-peptide conjugates and controls were added in MEM with 1% FBS.
An amine reactive Alexa-488 succinimidyl ester was mixed at a 1 to 1 molar ratio with the Antp-BH3 peptide in anhydrous dimethyl formamide (DMF). Unreacted fluorophore and organic solvent were removed using a PD 10 desalting column, and the fluorescently labeled peptide was lyophilized. Alexa-488 labeled Antp-BH3 was conjugated to the polymer as described above. Free peptide or polymer-peptide conjugate was applied to HeLas grown on chambered microscope slides at a concentration of 25 μM Antp-BH3. Cells were treated for 15 minutes, washed twice with PBS, and incubated in fresh media for an additional 30 minutes. The samples were washed again and fixed with 4% paraformaldehyde for 10 minutes at 37° C. Slides were mounted with ProLong Gold Antifade reagent containing DAPI and imaged using a fluorescent microscope.

[2] = tested on: caspases 3 and 7; assay: Caspase 3/7 activity assay; details: HeLa, 30 minutes, 25 μM peptide (alone or as conjugate) or equivalent polymer, relative to no treatment
Description: as §1
Caspase 3/7 activation was measured using a commercially available assay kit. This assay utilizes a profluorescent caspase 3/7 substrate that once enzymatically cleaved becomes fluorescent allowing for determination of relative enzyme activity using a fluorescent plate reader. Here, HeLas were incubated for 30 minutes with 25 μM peptide (alone or as polymer conjugate) in addition to polymer alone in a quantity equivalent to the conjugate samples. Afterwards, a caspase 3/7 fluorigenic indicator was added directly to the culture media for each sample. Plates were shaken for 1 hour and then assayed using a fluorescent plate reader. Data were expressed as percent caspase activity relative to samples receiving no treatment.

[3] = tested on: HeLa cells; assay: Flow cytometry evaluation of mitochondrial membrane potential (JC-1 dye); details: 2 hours, 10 μM peptide or equivalent conjugate or polymer alone, versus no treatment
Description: as §1
Loss of mitochondrial membrane potential, a known indicator for apoptosis, was assessed using the JC-1 dye. […] HeLas were incubated for 2 hours with 10 μM peptide or equivalent conjugate or polymer alone. JC-1 was added at a final concentration of 5 μg/mL and incubated for 15 minutes. Cells were washed 2 times with PBS, trypsinized, and resuspended in 0.5% BSA for flow cytometric analysis. Percent of cells displaying mitochondrial depolarization was quantified based on the number of green fluorescent cells that were negative for red fluorescence. Here, a significant loss of red fluorescent JC-1 aggregates and therefore a loss in mitochondrial polarization was detected following treatment with both the Antp-BH3 peptide and the polymer peptide conjugate (FIG. 8A).

[4] = tested on: HeLa cells; assay: Lactate dehydrogenase (LDH) cytotoxicity assay; details: HeLa cervical cancer cells
Description: Bioconjugate efficacy for triggering tumor cell death was determined using a lactate dehydrogenase (LDH) cytotoxicity assay. At the end of each time point, cells were washed two times with PBS and then lysed with cell lysis buffer (100 μL/well, 20 mM Tris-HCl, pH 7.5, 150 mM NaCl, 1 mM Na2EDTA, 1 mM EGTA, 1% Triton, 2.5 mM sodium pyrophosphate, 1 mM β-glycerophosphate, 1 mM sodium orthovanadate) for 1 hour at 4° C. 20 μl of lysate from each sample was diluted into 80 μl PBS, and LDH was quantified by mixing with 100 μL of the LDH substrate solution. Following a 10 minute incubation, LDH was determined by measuring absorbance at 490 nm. Percent viability was expressed relative to samples receiving no treatment.

[5] = tested on: erythrocytes; details: pH 5.8
Description: In order to assess the polymer's potential for endosomolytic activity, a membrane disruption assay was utilized to measure the capacity of the polymer to trigger pH-dependent disruption of lipid bilayer membranes as shown in FIG. 5. Whole human blood was drawn and centrifuged for plasma removal. The remaining erythrocytes were washed three times with 150 mM NaCl and resuspended into phosphate buffers corresponding to physiological (pH 7.4), early endosome (pH 6.6), and late endosome (pH 5.8) environments. The polymer (1-40 μg/mL) or 1% Triton X-100 was added to the erythrocyte suspensions and incubated for 1 hour at 37° C. Intact erythrocytes were pelleted via centrifugation, and the hemoglobin content within the supernatant was measured via absorbance at 541 nm. Percent hemolysis was determined relative to Triton X-100. Polymer hemolysis was quantified at concentrations ranging from 1-40 μg/mL relative to 1% v/v Triton X-100. This experiment was completed 2 times in triplicate, yielding similar results. The data shown represent a single experiment conducted in triplicate±standard deviation.

Substance | peptide intracellular localization (fluorescence pattern) [1] | caspase 3/7 activation [2] | increase in percent of cells exhibiting loss of mitochondrial polarity [3] | HeLa cell death / treatment effect (qualitative) [4] | hemolysis [5]
NH2-RQIKIWFQNRRMKWKKMGQVGRQLAIIGDDINRRYDSC-COOH (H-RQIKIWFQNRRMKWKKMGQVGRQLAIIGDDINRRYDSC-OH) [Antp-BH3 peptide, cell internalizing form of the Bak-BH3 peptide fused to Antennapedia peptide, carboxy-terminal cysteine] | punctate staining | approximately 2.5 fold | approximately 4 fold | negligible treatment effect | –
Poly[HPMA]-b-[(PAA)(BMA)(DMAEMA)] [diblock copolymer] | – | – | – | – | significant increase in hemolysis
